Measurements taken from patent US20240342179A1, “TREATMENT OF CANCERS OR NEOPLASMS BY INHIBITING KIF15” (University of Kansas, priority 2023, published 2024).

How the values were obtained:
[1] = target: KIF15 (Homo sapiens (Human), UniProt Q9NS87); conditions: read-out: median inhibitory concentration; cited from earlier work
[2] = target: KIF11 (Homo sapiens (Human), UniProt P52732); conditions: b18, cited from earlier work
[3] = system: HIO-80, HIO-118, FT190, FT194; experiment: CellTiter Glo cell viability, immortalized non-tumorigenic cell lines; type: cell-based; conditions: control cell lines, 72 hours
[4] = system: ovarian cancer cell lines; experiment: cells; conditions: 72 h, read-out: IC50 cell viability
[5] = system: ovarian cancer cell lines; conditions: 72 h

Sequence of KIF11 (P52732 whole entry): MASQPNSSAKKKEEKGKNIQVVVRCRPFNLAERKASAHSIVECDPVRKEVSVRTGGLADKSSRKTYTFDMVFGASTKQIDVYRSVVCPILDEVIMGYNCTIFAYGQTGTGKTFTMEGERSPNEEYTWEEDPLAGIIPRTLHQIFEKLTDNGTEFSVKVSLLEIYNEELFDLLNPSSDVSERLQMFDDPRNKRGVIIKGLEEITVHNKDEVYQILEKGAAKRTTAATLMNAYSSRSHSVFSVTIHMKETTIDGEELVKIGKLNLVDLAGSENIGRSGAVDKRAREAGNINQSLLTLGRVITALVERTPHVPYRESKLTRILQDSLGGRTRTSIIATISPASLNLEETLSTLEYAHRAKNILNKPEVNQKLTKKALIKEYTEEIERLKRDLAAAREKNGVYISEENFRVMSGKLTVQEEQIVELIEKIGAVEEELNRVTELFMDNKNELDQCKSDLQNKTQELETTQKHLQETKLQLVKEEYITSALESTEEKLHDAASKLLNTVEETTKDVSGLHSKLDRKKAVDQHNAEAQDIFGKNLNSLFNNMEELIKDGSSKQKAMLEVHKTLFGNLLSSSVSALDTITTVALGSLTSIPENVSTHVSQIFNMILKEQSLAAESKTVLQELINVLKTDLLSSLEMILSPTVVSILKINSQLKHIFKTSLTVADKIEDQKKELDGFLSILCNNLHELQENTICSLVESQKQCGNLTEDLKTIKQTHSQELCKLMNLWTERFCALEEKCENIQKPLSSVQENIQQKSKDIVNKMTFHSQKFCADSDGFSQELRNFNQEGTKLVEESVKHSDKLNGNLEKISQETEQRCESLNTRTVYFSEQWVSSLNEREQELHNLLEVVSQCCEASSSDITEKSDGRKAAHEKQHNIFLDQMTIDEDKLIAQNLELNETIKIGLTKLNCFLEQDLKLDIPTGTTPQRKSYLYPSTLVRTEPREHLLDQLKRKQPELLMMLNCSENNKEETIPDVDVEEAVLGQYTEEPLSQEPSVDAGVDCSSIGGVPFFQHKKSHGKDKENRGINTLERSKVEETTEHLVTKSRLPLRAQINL
Sequence of KIF15 (Q9NS87 whole entry): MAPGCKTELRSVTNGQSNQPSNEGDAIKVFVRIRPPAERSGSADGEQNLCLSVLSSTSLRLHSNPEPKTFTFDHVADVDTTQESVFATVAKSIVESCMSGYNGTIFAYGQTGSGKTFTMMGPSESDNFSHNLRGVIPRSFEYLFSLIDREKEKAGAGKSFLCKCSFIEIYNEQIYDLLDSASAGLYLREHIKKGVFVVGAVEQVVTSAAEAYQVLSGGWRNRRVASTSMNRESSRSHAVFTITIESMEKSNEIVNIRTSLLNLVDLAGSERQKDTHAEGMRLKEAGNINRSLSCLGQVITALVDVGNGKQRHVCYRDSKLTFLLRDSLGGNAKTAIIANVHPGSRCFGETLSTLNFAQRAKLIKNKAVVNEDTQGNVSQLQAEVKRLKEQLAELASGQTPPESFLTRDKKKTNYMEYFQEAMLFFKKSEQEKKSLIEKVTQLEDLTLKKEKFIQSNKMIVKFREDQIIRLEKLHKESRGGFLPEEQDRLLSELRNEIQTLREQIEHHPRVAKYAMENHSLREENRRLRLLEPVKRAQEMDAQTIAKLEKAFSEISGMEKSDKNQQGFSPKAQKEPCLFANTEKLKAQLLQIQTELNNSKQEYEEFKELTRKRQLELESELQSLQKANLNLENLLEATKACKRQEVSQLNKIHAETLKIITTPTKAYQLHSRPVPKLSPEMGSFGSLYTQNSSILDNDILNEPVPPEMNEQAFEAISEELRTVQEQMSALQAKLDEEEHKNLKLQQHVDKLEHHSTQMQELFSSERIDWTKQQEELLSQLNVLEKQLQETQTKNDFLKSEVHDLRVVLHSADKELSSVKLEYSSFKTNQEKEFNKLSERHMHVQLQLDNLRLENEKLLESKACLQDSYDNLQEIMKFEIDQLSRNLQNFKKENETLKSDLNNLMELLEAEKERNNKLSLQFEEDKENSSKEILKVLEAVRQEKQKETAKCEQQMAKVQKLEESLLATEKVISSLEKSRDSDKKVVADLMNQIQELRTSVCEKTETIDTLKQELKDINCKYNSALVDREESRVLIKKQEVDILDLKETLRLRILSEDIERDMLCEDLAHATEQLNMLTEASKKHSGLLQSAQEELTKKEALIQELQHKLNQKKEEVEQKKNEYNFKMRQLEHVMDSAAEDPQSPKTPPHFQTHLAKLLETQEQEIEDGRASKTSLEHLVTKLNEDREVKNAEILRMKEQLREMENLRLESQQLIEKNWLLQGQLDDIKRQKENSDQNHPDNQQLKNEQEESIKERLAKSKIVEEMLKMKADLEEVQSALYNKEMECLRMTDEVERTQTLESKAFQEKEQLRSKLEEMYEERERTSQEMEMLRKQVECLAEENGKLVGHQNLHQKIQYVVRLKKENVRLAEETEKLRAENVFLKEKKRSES

O=C1Nc2ccc(C(=O)c3ccco3)cc2/C1=C/c1cc(Cl)c(O)c(Cl)c1 [GW108X]
IC50 [1]: 800 nM

CON(C)C(=O)N1N=C(c2cc(F)ccc2F)S[C@@]1(CCCN)c1ccccc1 [filanesib]
Ki ([2]; read-out: K values): 6 nM

Cc1ccc(C(=O)N(CCCN)[C@@H](c2nc3cc(Cl)ccc3c(=O)n2Cc2ccccc2)C(C)C)cc1 [ispinesib]
IC50 [3]: 7.04 to 23.4 nM
IC50 [4]: 1.07 to 15.8 nM
loss of viability [5]: greater than 50%

CCOC(=O)C1=C(C)NC(=S)NC1c1cccc(O)c1 (stereo not drawn) [monastrol]
inhibit motor ATP hydrolysis [2]: 4.9 µM
